Measured values from US20250281424A1 (New York Blood Center, Inc, priority 2020, published 2025).

Target: T1, human PF4 (Homo sapiens, UniProt P02776)
T1 construct: PF4 is a 70 amino acid, lysine-rich 7.8 kDa platelet-specific protein; made in house; host or cells: Escherichia coli BL21DE3 pLysS (pT7-7) and/or Drosophila S2 cells
T1 sequence (P02776 32-101): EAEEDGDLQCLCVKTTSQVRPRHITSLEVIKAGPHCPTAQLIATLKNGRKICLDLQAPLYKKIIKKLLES
Test: Inhibition of PF4 tetramer formation (BS3 cross-linking, SDS-PAGE)
Type: biochemical
Conditions: for inhibition at 5 µM: 5 μM inhibitor; for inhibition at 5 µM / inhibition at 10 µM / inhibition at 1 µM / inhibition at 3 µM: read-out: % inhibition of PF4 tetramer formation at single concentration of inhibitor; for inhibition at 10 µM: 10 μM inhibitor (column A); for IC50: read-out: IC50 of PF4 tetramer formation inhibition; for inhibition at 1 µM: 1 μM inhibitor; for inhibition at 3 µM: 3 μM inhibitor (column A)
In short: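 Monomer, dimer, trimer and tetramer fractions were quantified by densitometry after reducing 12% SDS-PAGE of BS3-cross-linked (0.2 mM, 30 min, room temperature) PF4. Before cross-linking, 10 μg/ml E. coli-expressed human WT PF4 in PBS was exposed to compound for 15 min at 37° C or 60 min at room temperature; controls lacked compound.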

Question: What does the source list for `CC(C)(C)OC(=O)N[C@@H](Cc1ccccc1)C(=O)C1C(=O)c2ccc(C(=O)c3ccc4c(c3)C(=O)C(C(=O)[C@H](Cc3ccccc3)NC(=O)OC(C)(C)C)C4=O)cc2C1=O` (stereo partly drawn) [Example 157, tert-butyl N-[(2S)-1-(5-{2-[(2S)-2-{[(tert-butoxy)carbonyl]amino}-3-phenylpropanoyl]-1,3-dioxo-2,3-dihydro-1H-indene-5-carbonyl}-1,3-dioxo-2,3-dihydro-1H-inden-2-yl)-1-oxo-3-phenylpropan-2-yl]carbamate]?
Answer: inhibition at 5 µM: 100%; inhibition at 10 µM: 100%; IC50: 1.2 µM

Question: How did the inhibition at 1 µM turn out when `CC(=O)OC[C@H]1O[C@@H](OC(C)=O)[C@H](NC(=O)C2C(=O)c3ccc(Oc4ccc5c(c4)C(=O)C(C(=O)N[C@H]4[C@H](OC(C)=O)O[C@H](COC(C)=O)[C@@H](OC(C)=O)[C@@H]4OC(C)=O)C5=O)cc3C2=O)[C@@H](OC(C)=O)[C@@H]1OC(C)=O` (stereo partly drawn) [Example 399, [(2R,3S,4R,5R,6S)-3,4,6-tris(acetyloxy)-5-{5-[(1,3-dioxo-2-{[(2S,3R,4R,5S,6R)-2,4,5-tris(acetyloxy)-6-[(acetyloxy)methyl]oxan-3-yl]carbamoyl}-2,3-dihydro-1H-inden-5-yl)oxy]-1,3-dioxo-2,3-dihydro-1H-indene-2-amido}oxan-2-yl]methyl acetate] was run?
Answer: The inhibition at 1 µM was 21%.

Question: And the inhibition at 3 µM?
Answer: Its inhibition at 3 µM is 28%.

Question: Which inhibition at 5 µM does the source give for `COC(=O)C(C)(C)CC(=O)C1C(=O)c2ccc(C(=O)c3ccc4c(c3)C(=O)C(C(=O)CC(C)(C)C(=O)OC)C4=O)cc2C1=O` (centres unmarked) [Example 219] here?
Answer: The inhibition at 5 µM was 68%.

Question: What about the inhibition at 10 µM of the same molecule?
Answer: The inhibition at 10 µM was 91%.

Question: And the IC50?
Answer: Its IC50 is 5 µM.

Question: Which results are given for `CC(C)(C)OC(=O)NCCC(=O)C1C(=O)c2ccc(S(=O)(=O)c3ccc4c(c3)C(=O)C(C(=O)CCNC(=O)OC(C)(C)C)C4=O)cc2C1=O` (centres unmarked) [Example 164, tert-butyl N-[3-(5-{[2-(3-{[(tert-butoxy)carbonyl]amino}propanoyl)-1,3-dioxo-2,3-dihydro-1H-inden-5-yl]sulfonyl}-1,3-dioxo-2,3-dihydro-1H-inden-2-yl)-3-oxopropyl]carbamate]?
Answer: inhibition at 5 µM: 70%; inhibition at 10 µM: 82%; IC50: 5 µM

Question: Which inhibition at 1 µM does the source give for `O=C(NC1CCS(=O)(=O)C1)C1C(=O)c2ccc(Oc3ccc4c(c3)C(=O)C(C(=O)NC3CCS(=O)(=O)C3)C4=O)cc2C1=O` (centres unmarked) [Example 366, N-(1,1-dioxo-1λ^6-thiolan-3-yl)-5-({2-[(1,1-dioxo-1λ^6-thiolan-3-yl)carbamoyl]-1,3-dioxo-2,3-dihydro-1H-inden-5-yl}oxy)-1,3-dioxo-2,3-dihydro-1H-indene-2-carboxamide] here?
Answer: Its inhibition at 1 µM is 41%.

Question: And the inhibition at 3 µM?
Answer: Its inhibition at 3 µM is 60%.

Question: And the IC50?
Answer: Its IC50 is 0.55 µM.

Question: `CSCCCC(=O)C1C(=O)c2ccc(C(=O)c3ccc4c(c3)C(=O)C(C(=O)CCCSC)C4=O)cc2C1=O` (centres unmarked) [Example 284, 2-[4-(methylsulfanyl)butanoyl]-5-{2-[4-(methylsulfanyl)butanoyl]-1,3-dioxo-2,3-dihydro-1H-indene-5-carbonyl}-2,3-dihydro-1H-indene-1,3-dione] was tested. Which inhibition at 10 µM did it give?
Answer: The inhibition at 10 µM was 81%.

Question: What about the IC50 of the same molecule?
Answer: Its IC50 is 10 µM.

Question: For `O=C(c1ccc2c(c1)C(=O)C(C(=O)Cc1cccnc1)C2=O)c1ccc2c(c1)C(=O)C(C(=O)Cc1cccnc1)C2=O` (centres unmarked) [Example 238, 5-{1,3-dioxo-2-[2-(pyridin-3-yl)acetyl]-2,3-dihydro-1H-indene-5-carbonyl}-2-[2-(pyridin-3-yl)acetyl]-2,3-dihydro-1H-indene-1,3-dione], which inhibition at 1 µM is on record?
Answer: The inhibition at 1 µM was 7%.

Question: What about the inhibition at 3 µM of the same molecule?
Answer: The inhibition at 3 µM was 100%.

Question: How did the inhibition at 5 µM turn out when `O=C(c1ccc2c(c1)C(=O)C(C(=O)CN1CCCC1=O)C2=O)c1ccc2c(c1)C(=O)C(C(=O)CN1CCCC1=O)C2=O` (centres unmarked) [Example 183, 5-{1,3-dioxo-2-[2-(2-oxopyrrolidin-1-yl)acetyl]-2,3-dihydro-1H-indene-5-carbonyl}-2-[2-(2-oxopyrrolidin-1-yl)acetyl]-2,3-dihydro-1H-indene-1,3-dione] was run?
Answer: The inhibition at 5 µM was 87%.

Question: And the inhibition at 10 µM?
Answer: Its inhibition at 10 µM is 100%.

Question: What about the IC50 of the same molecule?
Answer: Its IC50 is 4.3 µM.

Question: How did the inhibition at 10 µM turn out when `O=C(O)CNC(=O)C1C(=O)c2ccc(S(=O)(=O)c3ccc4c(c3)C(=O)C(C(=O)NCC(=O)O)C4=O)cc2C1=O` (centres unmarked) [Example 311, 2-{[5-({2-[(carboxymethyl)carbamoyl]-1,3-dioxo-2,3-dihydro-1H-inden-5-yl}sulfonyl)-1,3-dioxo-2,3-dihydro-1H-inden-2-yl]formamido}acetic acid] was run?
Answer: Its inhibition at 10 µM is 73%.

Question: Which results are given for `CC(C)(C)OC(=O)N1CCC[C@H]1C(=O)C1C(=O)c2ccc(-c3ccc4c(c3)C(=O)C(C(=O)[C@@H]3CCCN3C(=O)OC(C)(C)C)C4=O)cc2C1=O` (stereo partly drawn) [Example 209, tert-butyl (2S)-2-{2′-[(2S)-1-[(tert-butoxy)carbonyl]pyrrolidine-2-carbonyl]-1,1′,3,3′-tetraoxo-1H,1′H,2H,2′H,3H,3′H-[5,5′-biindene]-2-carbonyl}pyrrolidine-1-carboxylate]?
Answer: inhibition at 5 µM: 75%; inhibition at 10 µM: 96%; IC50: 4.2 µM

Question: Which inhibition at 5 µM does the source give for `O=C(c1ccc2c(c1)C(=O)C(C(=O)[C@@H]1CCN1)C2=O)c1ccc2c(c1)C(=O)C(C(=O)[C@@H]1CCN1)C2=O` (stereo partly drawn) [Example 116, 2-[(2S)-azetidine-2-carbonyl]-5-{2-[(2S)-azetidine-2-carbonyl]-1,3-dioxo-2,3-dihydro-1H-indene-5-carbonyl}-2,3-dihydro-1H-indene-1,3-dione] here?
Answer: Its inhibition at 5 µM is 13%.

Question: And the inhibition at 10 µM?
Answer: Its inhibition at 10 µM is 21%.

Question: With `O=C(c1ccc2c(c1)C(=O)C(C(=O)NCCOCC(F)(F)F)C2=O)c1ccc2c(c1)C(=O)C(C(=O)NCCOCC(F)(F)F)C2=O` (centres unmarked) [Example 67, 5,5′-carbonylbis(1,3-dioxo-n-(2-(2,2,2-trifluoroethoxy)ethyl)-2,3-dihydro-1h-indene-2-carboxamide)] as the molecule, how does the inhibition at 5 µM read?
Answer: The inhibition at 5 µM was 0%.

Question: And the inhibition at 10 µM?
Answer: Its inhibition at 10 µM is 20%.

Question: What does the source list for `CS(=O)(=O)N1CCC(NC(=O)C2C(=O)c3ccc(Oc4ccc5c(c4)C(=O)C(C(=O)NC4CCN(S(C)(=O)=O)CC4)C5=O)cc3C2=O)CC1` (centres unmarked) [Example 369, N-(1-methanesulfonylpiperidin-4-yl)-5-({2-[(1-methanesulfonylpiperidin-4-yl)carbamoyl]-1,3-dioxo-2,3-dihydro-1H-inden-5-yl}oxy)-1,3-dioxo-2,3-dihydro-1H-indene-2-carboxamide]?
Answer: inhibition at 1 µM: 1%; inhibition at 3 µM: 21%

Question: `CC(C)(C)OC(=O)N1C[C@H](F)C[C@H]1C(=O)C1C(=O)c2ccc(-c3ccc4c(c3)C(=O)C(C(=O)[C@@H]3C[C@@H](F)CN3C(=O)OC(C)(C)C)C4=O)cc2C1=O` (stereo partly drawn) [Example 215, tert-butyl (2S,4R)-2-{2′-[(2S,4R)-1-[(tert-butoxy)carbonyl]-4-fluoropyrrolidine-2-carbonyl]-1,1′,3,3′-tetraoxo-1H,1′H,2H,2′H,3H,3′H-[5,5′-biindene]-2-carbonyl}-4-fluoropyrrolidine-1-carboxylate] was tested. Which IC50 did it give?
Answer: Its IC50 is 2.4 µM.

Question: Which inhibition at 5 µM does the source give for `CC(C)(C)OC(=O)N1CC2(CC(C(=O)C3C(=O)c4ccc(C(=O)c5ccc6c(c5)C(=O)C(C(=O)C5CC7(C5)CN(C(=O)OC(C)(C)C)C7)C6=O)cc4C3=O)C2)C1` (centres unmarked) [Example 131, tert-butyl 6-[5-(2-{2-[(tert-butoxy)carbonyl]-2-azaspiro[3.3]heptane-6-carbonyl}-1,3-dioxo-2,3-dihydro-1H-indene-5-carbonyl)-1,3-dioxo-2,3-dihydro-1H-indene-2-carbonyl]-2-azaspiro[3.3]heptane-2-carboxylate] here?
Answer: Its inhibition at 5 µM is 83%.

Question: And the inhibition at 10 µM?
Answer: Its inhibition at 10 µM is 88%.

Question: And the IC50?
Answer: Its IC50 is 4.1 µM.

Question: Which results are given for `CSCC(=O)C1C(=O)c2ccc(C(=O)c3ccc4c(c3)C(=O)C(C(=O)CSC)C4=O)cc2C1=O` (centres unmarked) [Example 281, 2-[2-(methylsulfanyl)acetyl]-5-{2-[2-(methylsulfanyl)acetyl]-1,3-dioxo-2,3-dihydro-1H-indene-5-carbonyl}-2,3-dihydro-1H-indene-1,3-dione]?
Answer: inhibition at 10 µM: 58%; IC50: 10 µM

Question: `CCOC(=O)C1(C(C)=O)C(=O)c2ccc(Oc3ccc4c(c3)C(=O)CC4=O)cc2C1=O` (centres unmarked) [Example 6, 2-acetyl-5-(1,3-dioxo-indan-5-yloxy)-1,3-dioxo-indan-2-carboxylic acid ethyl ester] was tested. Which IC50 did it give?
Answer: Its IC50 is 1.05 µM.

Question: Which results are given for `O=C(c1ccc2c(c1)C(=O)C(C(=O)NCC1CCS(=O)(=O)C1)C2=O)c1ccc2c(c1)C(=O)C(C(=O)NCC1CCS(=O)(=O)C1)C2=O` (centres unmarked) [Example 359, N-[(1,1-dioxo-1λ^6-thiolan-3-yl)methyl]-5-(2-{[(1,1-dioxo-1λ^6-thiolan-3-yl)methyl]carbamoyl}-1,3-dioxo-2,3-dihydro-1H-indene-5-carbonyl)-1,3-dioxo-2,3-dihydro-1H-indene-2-carboxamide]?
Answer: inhibition at 1 µM: 34%; inhibition at 3 µM: 45%

Question: For `O=C(c1ccc2c(c1)C(=O)C(C(=S)NC1CC1)C2=O)c1ccc2c(c1)C(=O)C(C(=S)NC1CC1)C2=O` (centres unmarked) [Example 328, N-cyclopropyl-5-[2-(cyclopropylcarbamothioyl)-1,3-dioxo-2,3-dihydro-1H-indene-5-carbonyl]-1,3-dioxo-2,3-dihydro-1H-indene-2-carbothioamide], which inhibition at 1 µM is on record?
Answer: Its inhibition at 1 µM is 16%.

Question: What about the inhibition at 3 µM of the same molecule?
Answer: The inhibition at 3 µM was 26%.

Question: Which inhibition at 1 µM does the source give for `CC(C)C[C@@H](N)C(=O)C1C(=O)c2ccc(S(=O)(=O)c3ccc4c(c3)C(=O)C(C(=O)[C@H](N)CC(C)C)C4=O)cc2C1=O` (stereo partly drawn) [Example 355, 2-[(2R)-2-amino-4-methylpentanoyl]-5-({2-[(2R)-2-amino-4-methylpentanoyl]-1,3-dioxo-2,3-dihydro-1H-inden-5-yl}sulfonyl)-2,3-dihydro-1H-indene-1,3-dione] here?
Answer: The inhibition at 1 µM was 23%.

Question: What about the inhibition at 3 µM of the same molecule?
Answer: The inhibition at 3 µM was 61%.
